Among the data in BindingDB's records for doi:10.1016/s0960-894x(00)00294-8 (Universität Göttingen, 2000) are IC50 values, retold here.

This test is described as follows: Compound was evaluated for inhibitory effect against protein phosphatase I (PP-I).

For `CCCCCCCCCCCCCCCC(=O)OC[C@@H](O)[C@H]1OC(=O)[C@]2(CCC(OC(C)C)O2)C1=O` (stereo partly drawn) [Hexadecanoic acid (R)-2-hydroxy-2-((5S,8R)-2-isopropoxy-6,9-dioxo-1,7-dioxa-spiro[4.4]non-8-yl)-ethyl ester], the IC50 was found to be 3 µM. That is a single-digit micromolar value.

Take `CCCCCCCCCCCCCCCC(=O)OC[C@@H](O)[C@H]1OC(=O)[C@]2(O)CCC(O)O[C@]12OC` (stereo partly drawn) [Hexadecanoic acid (R)-2-((4aS,7R,7aR)-2,4a-dihydroxy-7a-methoxy-5-oxo-hexahydro-furo[3,4-b]pyran-7-yl)-2-hydroxy-ethyl ester]: it took 11 µM to reach half-maximal inhibition (IC50).

A word on the IC50: it is the concentration needed to halve the response being measured. High values mean lower potency, low ones higher potency.
